Measured values reported in patent US20250034523A1, “METHODS OF GENERATING HUMAN COCHLEAR HAIR CELLS” (THE TRUSTEES OF INDIANA UNIVERSITY, priority 2021, published 2025).

Tested on: hESC-derived PAX2-nGFP+ otic progenitors
Experiment: ventral/dorsal otic marker expression in otic progenitors (D20 scRNA-seq, D25 immunofluorescence)
Assay type: cell-based, human
Experimental: PAX2-2A-nGFP/POU4F3-2A-ntdTomat hESCs (passages 22-50) were maintained and passaged in Essential 8 Flex Medium (Thermo Fisher, A2858501) supplemented with 100 μg/ml Normocin (E8fn) on recombinant human Vitronectin-N(Thermo Fisher, A14700)-coated 6-well plates. Human inner ear organoids were derived from hESCs based on the inventors' previous protocol 8.10 with major modifications. Briefly, hESCs were dissociated with StemPro Accutase (Thermo Fisher, A1110501) and distributed at 3500 cells per well onto low-adhesion 96-well U-bottom plates in 100 μL E8fn containing 20 μM Y-27632 (Stemgent, 04-0012-02) and forcibly aggregated at 120 g for 5 minutes. 100 μL of E8fn was added to each well after >4 h of incubation. Induction of non-neural epithelium occurred following 48 h of aggregation, marking differentiation day 0, as follows: aggregates were washed extensively in DMEM:F12 with HEPES buffer (DFH) (Thermo Fisher, 11320033) and transferred to new 96-well U-bottom plates in 100 μL of E6 medium (Thermo Fisher, A1516401) with Normocin (E6n) containing 4 ng mL^−1 FGF-2 (StemCell Technologies, 780003), 10 μM SB-431542 (Stemgent, 04-0010-05), and 2% growth factor reduced (GFR) Matrigel (Corning, 354230). On day 3 of differentiation, 25 μL of E6n containing 50 ng/ml FGF-2 and 200 nM LDN-193189 (Stemgent, 04-0074-02) was added to each well. […]

SMILES: c1ccc2c(Oc3nc(Nc4ccc(N5CCOCC5)cc4)c4ncn(C5CCCCC5)c4n3)cccc2c1 [PUR, 9H-Purin-6-amine, 9-cyclohexyl-N-[4-(4-morpholinyl)phenyl]-2-(1-naphthalenyloxy)-]
- ventral otic marker expression (D20-D25 organoids): not sufficient
- expression of SHH pathway genes SULF1, LRP2, GAS1, PTCH1 (D20 otic progenitors): attenuated
